Experimental data: US4565816A, “Piperazine derivatives and pharmaceutical composition containing them” (Sandoz Ltd., priority 1982, dated 1986)

Columns and labels:
[1] = tested on: female normotonic rats; assay: blood pressure / heart rate in anaesthetized normotonic rats; format: in vivo, rat (female, Sprague-Dawley); details: Rattus norvegicus, iv; urethane-anaesthetized rats, cumulative i.v. doses 3 to 1443 μg/kg, interpolated; read-out: ED75 (dose required to reduce the blood pressure on the heart rate to 75% of pretreatment values)
Experimental: In another test female normotonic rats (200-350 g, Sprague-Dawley, Suddeutsche Tierfarm, Tuttlingen, FRG) were anaesthetized with urethane (1.5-1.75 g/kg i.p. in 2 portions) and a tracheal cannula was inserted. Blood pressure and heart rate were recorded from the carotid artery by conventional methods. Test drug were administered by the jugular or the femoral vein. Body temperature was maintained at 37° C. by means of a temperature regulator (Alfos MK-4) triggered by a thermistor on the animal. After adaptation, increasing doses of the test drug were injected i.v. to give the following cumulative doses: 3, 13, 43, 143, […] and 1443 μg/kg. ED 75% is the dose required to reduce the blood pressure on the heart rate to 75% of pretreatment values. It was obtained through interpolation. The ED75 of the Example 4 compound is 6 μg, of Example 5s compound 3 μg, of Example 8 g 4 μg and of Guanfacine 57 μg.

[2] = molecular target: T1, ^3 H-Spiperone binding sites (Bos taurus, UniProt P20288); assay: ^3 H-Spiperone binding (calf brain striatal tissue); details: for IC50: calf brain striatal membranes, 0.1 nM ^3 H-Spiperone, 5×10^-7 M Cinanserin, 40 minutes at room temperature, read-out: Receptor binding IC50 ^3 H-Spiperone; for effect in the ^3 H-Spiperone binding test compared with Clozapine: in words, relative to Clozapine
T1 construct: fresh calf brain striatal tissue was homogenized; from tissue; host or cells: calf brain striatum, membranes
T1 sequence (P20288 whole entry): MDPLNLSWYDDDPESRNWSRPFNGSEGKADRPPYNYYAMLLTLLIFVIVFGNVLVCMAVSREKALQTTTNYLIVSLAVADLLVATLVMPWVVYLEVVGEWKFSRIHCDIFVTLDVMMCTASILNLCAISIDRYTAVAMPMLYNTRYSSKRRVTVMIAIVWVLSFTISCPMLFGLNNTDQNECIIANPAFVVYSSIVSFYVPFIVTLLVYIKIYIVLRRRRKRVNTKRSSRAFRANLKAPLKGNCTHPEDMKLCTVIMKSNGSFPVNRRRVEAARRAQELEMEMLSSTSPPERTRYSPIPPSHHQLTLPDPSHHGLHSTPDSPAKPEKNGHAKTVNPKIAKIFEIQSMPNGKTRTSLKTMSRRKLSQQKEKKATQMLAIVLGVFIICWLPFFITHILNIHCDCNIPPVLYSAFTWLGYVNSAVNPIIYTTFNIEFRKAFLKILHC
Experimental: The compounds of formulae I and VII bind further on ^3 H-Spiperone binding sites in the brain [modified method of J. Leysen et al., Biochem. Pharmac. […] The test was performed as follows: fresh calf brain striatal tissue was homogenized in the 25 fold volume of Tris buffer (pH 7.4, 50 mM, 120 mM sodium chloride) and centrifuged. The pellets were suspended in the 22 fold volume of Tris buffer, incubated for 15 minutes at 37° C. and centrifuged. The pellets were suspended in the 300 fold volume of Tris buffer. […] After incubation for 40 minutes at room temperature, the assay mixtures were raidly filtered through Whatman GF/B filter, the filters washed twice with 5 ml of ice cold Tris buffer and scintillation-counted.

[3] = tested on: mice; assay: inhibition of locomotion in mice; format: in vivo, mouse (male, OF-1); details: Mus musculus, po, 1 hour after administration, minimum dose at which significant inhibition was observed, read-out: Locomotor inhibition EDmin
Experimental: In particular, the compounds of formulae I and VII are useful as neuroleptic agents in the treatment of e.g. psychotic disorders such as schizophrenia, as indicated in standard tests, e.g. by an inhibition of locomotion in mice. In this test groups of 3 male mice (18-24 g, OF-1, Sandoz Basle) received 3.2, 10, 32, 100 and […]. of the test drug. 1 hour after drug administration the mice were observed individually and their locomotion compared with that of control. The locomotion of the animals was observed and the EDmin (the minimum dose at which significant inhibition was observed) determined.

[4] = tested on: spontaneously beating guinea-pig atria; assay: decrease of heart rate of spontaneously beating guinea-pig atria in vitro; details: Cavia porcellus, read-out: EC25 (concentration decreasing the rate of the spontaneously beating atria by 25%)
Experimental: For example, in guinea-pig atria in vitro [method of R. P. Hof and G. Scholtysik, J. of Cardiovascular Pharmacology 5, 176-183 (1983)] a decrease of the heart rate of spontaneously beating atria is observed at a bath concentration of from about 1 μM to about 100 μM. The concentration decreasing the rate of the spontaneously beating atria by 25% (EC25 values) for some compounds of the present invention and the standard Alinidin are given in the following Table: […]

[5] = molecular target: α1-receptors; assay: ^3 H-Prazosin binding assay for α1-receptors (calf brain cortex); details: calf brain cortex membranes, 0.3 nM ^3 H-Prazosin, pH 7.7, 40 min room temperature; read-out: IC50, inhibition of specific ^3 H-Prazosin binding
Experimental: The compounds of formulae I and VII are furthermore useful as anti-hypertensive agents, as indicated in standard tests, for example in the ^3 H-Prazosin binding assay for α1 -receptors [modified method of Greengrass P., et al., Eur. J. Pharmac. 55, 323-326 (1979)]. The test was performed as follows:
Fresh calf brain cortex tissue is homogenized in a 20 fold volume of Tris-HCl buffer (50 mM, pH 7.7), using a Polytron PT 20, and centrifuged at 30'000 xg for 25 min. The pellets are resuspended in a 13 fold volume of the same buffer, incubated for 15 min at 37° C., and recentrifuged at 50'000 xg for 11 min. The pellets of this centrifugation are frozen at -20° C. and resuspended in a 60 fold volume of the same buffer as above before use for the binding experiment. The composition of the assay mixtures (total volume=2 ml) is as follows: 50 mM Tris-HCl pH 7.7, membranes corresponding to 30 mg of original tissue weight, and 0.3 nM ^3 H-Prazosin. The assays for the definition of nonspecific binding additionally contain phentolamine at a concentration of 10 μM. To assess the potency of drugs in inhibiting specific ^3 H-Prazosin binding (difference between total and nonspecific binding), the test compounds are added to give 5 to 9 different concentrations between 1 nM and 10 μM, each in duplicate. After incubation for 40 min at room temperature, the assay mixtures are rapidly filtered through Whatman GF/B filters and washed twice with 5 ml of ice cold Tris buffer. The radioactivity of the filters is estimated by scintillation counting.

Row | Structure (SMILES) | IC50 [2] [nM] | minimal effective dose [3] [mg/kg] | further results
1 | CC(=O)Nc1cnc(N2CCN(CCCOc3ccc(F)cc3)CC2)cc1NC(C)=O [Example 5s] |  |  | ED75 [1]: 0.003 mg/kg
2 | Cc1nc2ccc(N3CCN(CCCC(=O)c4ccc(F)cc4)CC3)nc2nc1C [Example 7, 4-[4-(2,3-Dimethyl-pyrido[2,3-b]pyrazin-6-yl)-1-piperazinyl]-1-(4-fluorophenyl)-1-butanone] | 205 | 10 | 
3 | CC(=O)Nc1ccc(N2CCN(CCCC(=O)c3ccc(F)cc3)CC2)nc1NC(C)=O [Example 5c] | 4600 | 1 | 
4 | C=CCN(C1=NCCN1)c1c(Cl)cccc1Cl [Alinidin, reference compound] |  |  | EC25 [4]: 6500 nM
5 | CC(=O)Nc1cnc(N2CCN(CCCC(=O)c3ccc(F)cc3)CC2)cc1NC(C)=O [Example 4, 4-[4-(4,5-Diacetylamino-2-pyridinyl)-1-piperazinyl]-1-(4-fluorophenyl)-1-butanone] |  |  | IC50 [5]: < 1 nM; ED75 [1]: 0.006 mg/kg
6 | O=C(CCCN1CCN(c2cc3nccnc3cn2)CC1)c1ccc(F)cc1 [Example 8d] |  |  | EC25 [4]: 4000 nM
7 | Cc1nc2cnc(N3CCN(CCCC(=O)c4ccc(F)cc4)CC3)cc2nc1C [Example 8c] | 121 | 10 | 
8 | N=C(N)NC(=O)Cc1c(Cl)cccc1Cl [Guanfacine, reference compound] |  |  | IC50 [5]: 3700 nM; ED75 [1]: 0.057 mg/kg
9 | CN1CCN(C2=Nc3cc(Cl)ccc3Nc3ccccc32)CC1 [Clozapine, reference compound] |  | 3.2 | 
10 | O=C(CCCN1CCN(c2cc3[nH]cnc3cn2)CC1)c1ccc(F)cc1 [Example 3r] | 441 | ≤ 3.2 | 
11 | Fc1ccc(OCCCN2CCN(c3cc4nccnc4cn3)CC2)cc1 [Example 8g] |  |  | EC25 [4]: 2150 nM; ED75 [1]: 0.004 mg/kg
12 | O=C(CCCN1CCN(c2ccc3[nH]cnc3n2)CC1)c1ccc(F)cc1 [Example 1, 1-(4-Fluorophenyl)-4-[4-(1H-imidazo[4,5-b]pyridin-5-yl)-1-piperazinyl]-1-butanone] | 306 | 1 | EC25 [4]: 7800 nM; effect in the ^3 H-Spiperone binding test compared with Clozapine [2]: stronger effects
13 | CCc1nc2ccc(N3CCN(CCCC(=O)c4ccc(F)cc4)CC3)nc2[nH]1 [Example 3i] | 246 | 3.2 | effect in the ^3 H-Spiperone binding test compared with Clozapine [2]: stronger effects
14 | Cc1nc2ccc(N3CCN(CCCC(=O)c4ccc(F)cc4)CC3)nc2n1C [Example 3d] |  |  | IC50 [5]: 2.2 nM
